Entries after “also recorded” stand apart in the source; their conditions may differ.
Assays:
[1] = test system: mouse lymphatic fibroblast (MLF) cells; details: 1 uM, FIG. 7E
Procedure: With reference to FIG. 7E, MLF cells having a silenced X chromosome were assayed for reactivation of the Gpc4 gene after incubation with SAHA at 2 uM, RGFP966 at 3 uM, RG2833 (RGFP109) at 300 nM, PCI-24781 (Abexinostat) at 300 nM, CUDC-101 at 400 nM, Resminostat at 100 nM, Mocetinostat (MGCD0103) at 10 uM, HPOB (4-[(hydroxyamino)carbonyl]-N-(2-hydroxyethyl)-N-phenyl-benzeneacetamide) at 5 uM, Entinostat (MS0275) at 2 uM, Droxinostat at 20 uM, 4SC-202 at 2 uM, Trichostatin A (TSA) at 5 uM, Rocilinostat (ACY-1215) at 100 nM, Quisinostat (JNJ-26481585) at 100 nM, or Pracinostat (SB939) at 1 uM.
5,000 Mouse MLF cells were plated on a poly-D-lysine (Sigma) and 0.2% gelatin (Sigma)-coated #1.5 coverslip placed into wells of a 24-well plate containing HEK media (DMEM, 10% Gemini Benchmark FBS, 1×L-glutamine, 1× sodium pyruvate, 1×NEAA, lx Pen/Strep; Life Technologies unless otherwise indicated). After 16 hours, inhibitors were added into the media and incubated the cells for 48 hours. Unless, otherwise indicated, the inhibitors and the concentration used were: 5-Azacytidine (6 μM; Sigma, A2385), 5-Aza-2′-deoxycytidine (0.3 μM; Sigma, A3656), RG 108 (200 μM; Abcam, ab141013), Trichostatin A (5 μM; Sigma, T8552), and Scriptaid (100 nM; Sigma, S7817).

[2] = test system: mouse lymphatic fibroblast (MLF) cells; assay: X-chromosome reactivation assay (single molecule RNA FISH of X-linked mRNA) in MLF cells having silenced X genes; format: cell-based; details: for reactivation of silenced X-chromosome gene Gpc4 (Gpc4 mRNA) compared with Scriptaid alone: in combination with one of the DNMT1 inhibitors 5-aza, 5-aza-2'-dc, RG108 or SGI-1027, FIGS. 7A-7B
Procedure: Coverslips from siRNA transfection or inhibitor treatment were fixed in Histochoice (Sigma) for 10 min, washed thoroughly in PBS, and dehydrated in ethanol for storage until FISH staining. Single molecule RNA Fluorescence in situ hybridization (FISH) experiments were done using QuantiGene ViewRNA ISH Cell Assay (Affymetrix) and QuantiGene ViewRNA ISH Cell 740 Module (Affymetrix) according to manufacturer's protocol. Specifically, cells fixed on coverslips were first permeabilized with Detergent Solution QC at room temperature for 5 min, and then incubated with desired mixture of probe set (Affymetrix) in Probe Set Diluent QF at 40° C. for 3 h, followed by incubated with PreAmplifier Mix at 40° C. for 30 min, Amplifier Mix at 40° C. for 30 min, and Label Probe Mix at 40° C. for 30 min sequentially. For DAPI staining, coverslips were incubated in 30 nM DAPI in PBS at room temperature for 15-20 min. Probe sets and conjugated fluorophores (excitation wavelengths) for FISH were TYPE 4-GPC4, MECP2, SMC1A (488 nm), TYPE 10-ATRX (740 nm), and TYPE 6-EMD (650 nm). Cells were stained for target mRNAs (e.g., X-linked Gpc4 mRNA, X-linked MeCP2 mRNA, or as indicated) and siRNA-targeted mRNA by FISH and imaged. Images were then analyzed using Matlab R2013b (described below). In the case of siRNA targeting, cells were selected if the copy number of the targeted mRNA was less than 30% of the level of the no siRNA treated cells and if they induced Xist expression. Within these cells, the copy number of target mRNAs were quantified using a peak finding method (described below) and compared across conditions. The mRNA levels were quantified for 50 individual cells. All image analysis was carried out using Matlab (version R2013b) utilizing built-in functions from the Image Processing toolbox. […] Once regional maxima were identified, the number of spots was counted for each cell. The percentage of X-reactivation is calculated by normalizing the average number of spots of each condition to the average number of spots in untreated cells, and subtracting the value by 1.

human fibroblast cells = assay: X chromosome reactivation (active PGK1 loci, MeCP2 mRNA) in human fibroblast cells having a silenced X chromosome; format: cell-based; details: for percentage of reactivated human fibroblasts (active PGK1 loci) with treatment time: simultaneous treatment with 5-aza-2'-dc, 48 h, 72 h, 7 days, FIG. 7F; for activation of the silenced X chromosome: simultaneous treatment with DNMT1 inhibitor 5-aza-2'-dc, human fibroblast cells
Procedure: (§1) FIG. 7F is a graph of the percentage of reactivated cells (measured as the number of active phosphoglycerate kinase 1 (PGK1) loci for a population of 50 human fibroblast cells having a silenced X chromosome after the simultaneous treatment of DMSO (as a control), the DNMT1 inhibitor (5-aza-2-dc) and the HDAC inhibitor SAHA or RGFP966 for 48 hours (h), 72 hours, and 7 days as indicated, with the number of active PGK1 loci greater than 2 shown in grey, the number of PGK1 loci equal to 2 shown in orange, and the number of PGK1 loci equal to 1 shown in blue, according to embodiments of the present invention.
FIG. 7G is a graph quantifying the expression level of MeCP2 mRNA (relative to control) of reactivated human fibroblast cells having a silenced X chromosome after simultaneous treatment with DMSO (control), the DNMT1 inhibitor (5-aza-2-dc) and the HDAC inhibitor SAHA or RGFP966 for 7 days for a population of 50 cells, according to embodiments of the present invention.
(§2) Cells were stained for target mRNAs (e.g., X-linked Gpc4 mRNA, X-linked MeCP2 mRNA, or as indicated) and siRNA-targeted mRNA by FISH and imaged. Images were then analyzed using Matlab R2013b (described below). In the case of siRNA targeting, cells were selected if the copy number of the targeted mRNA was less than 30% of the level of the no siRNA treated cells and if they induced Xist expression. Within these cells, the copy number of target mRNAs were quantified using a peak finding method (described below) and compared across conditions. The mRNA levels were quantified for 50 individual cells.
The number of active X chromosomes was determined by RNA FISH with probes against the intronic region of Pgk1/PGK1 RNA using smFISH. The spots were then identified using a 2D peak finding algorithm that identifies local maximal signals within the cell. Once regional maxima were identified, the number of spots was counted for each cell. Cells were selected in the G1 phase of the cell cycle by co-immunostaining the cells with Cyclin E antibodies (Abcam; ab33911 for mouse cells; ab32103 for human cells) and selecting Cyclin E positive cells.

[3] = test system: mouse post-mitotic neurons; assay: X chromosome reactivation (active PGK1 loci, MeCP2 mRNA) in mouse post-mitotic neurons having a silenced X chromosome; format: cell-based; details: simultaneous treatment with DNMT1 inhibitor 5-aza-2'-dc
Procedure: as §1, with “7H” for “7F”, “mouse post-mitotic neuronal” for “human fibroblast”
FIG. 7I is a graph quantifying the expression level of MeCP2 mRNA in mouse post-mitotic neurons having a silenced X chromosome after simultaneous treatment with DMSO (control), the DNMT1 inhibitor (5-aza-2-dc) and the HDAC inhibitor SAHA or RGFP966 for 7 days for a population of 50 cells, with the relative expression calculated by normalizing reactivated female post-mitotic neurons to male post-mitotic neurons, according to embodiments of the present invention.
Cells were stained for target mRNAs (e.g., X-linked Gpc4 mRNA, X-linked MeCP2 mRNA, or as indicated) and siRNA-targeted mRNA by FISH and imaged. Images were then analyzed using Matlab R2013b (described below). […] The mRNA levels were quantified for 50 individual cells. […]

[4] = test system: human iPS-derived neurons; assay: X chromosome reactivation (PGK1 and MeCP2 mRNA staining) in human iPS-derived neurons having a silenced X chromosome; format: cell-based; details: simultaneous treatment with DNMT1 inhibitor 5-aza-2'-dc
Excerpt: FIG. 7K is a graph quantifying the expression level of MeCP2 mRNA in human iPSC-derived neurons having a silenced X chromosome after simultaneous treatment with the DNMT1 inhibitor (5-aza-2-dc) and the HDAC inhibitor SAHA for 7 days for a population of 50 cells, with the relative expression calculated by normalizing the neurons (two spots of active PGK1 loci) to non-reactivated (treated) neurons (one spot of active PGK1 locus), according to embodiments of the present invention.
as §2
The number of active X chromosomes was determined by RNA FISH with probes against the intronic region of Pgk1/PGK1 RNA using smFISH. […] Once regional maxima were identified, the number of spots was counted for each cell. […]

Structure (SMILES) | reactivation of silenced X-chromosome gene Gpc4 (Gpc4 mRNA) compared with Scriptaid alone [2] | percentage of reactivated human fibroblasts (active PGK1 loci) with treatment time (human fibroblast cells) | activation of the silenced X chromosome (human fibroblast cells) | activation of the silenced X chromosome [3] | activation of the silenced X chromosome [4] | further results
CCCCc1nc2cc(/C=C/C(=O)NO)ccc2n1CCN(CC)CC [Pracinostat] |  |  |  |  |  | cytotoxicity (cell death) [1]: cytotoxic, causing cell death
O=C(CCCCCN1C(=O)c2cccc3cccc(c23)C1=O)NO [Scriptaid] | reactivated to a higher level of reactivation |  |  |  |  | reactivation of the Xist-dependent silent Gpc4 gene as measured by levels of Gpc4 mRNA ([2]; HDAC inhibitor alone, FIGS. 7A-7B): expression of Gpc4; also recorded: reactivation of the Xist-dependent silent Gpc4 gene
Nc1cc(F)ccc1NC(=O)/C=C/c1cnn(C/C=C/c2ccccc2)c1 [RGFP966] |  | increase in reactivation | activation (or re-activation) of the X chromosome | activation of the X chromosome | activation of the X chromosome | 
O=C(CCCCCCC(=O)Nc1ccccc1)NO [SAHA] |  | increase in reactivation | activation (or re-activation) of the X chromosome | activation of the X chromosome | activation of the X chromosome | 
CC(/C=C/C(=O)NO)=C\[C@@H](C)C(=O)c1ccc(N(C)C)cc1 [Trichostatin A] | reactivated to a higher level of reactivation |  |  |  |  | 

— US11197881B2 (CALIFORNIA INSTITUTE OF TECHNOLOGY, priority 2016, dated 2021)
